Experiments:
[1] = molecular target: Vasopressin V1a receptor (Homo sapiens, UniProt P37288)
[2] = molecular target: T1, Endothelin-1 receptor (Homo sapiens, UniProt P25101)
T1 sequence (P25101 whole entry): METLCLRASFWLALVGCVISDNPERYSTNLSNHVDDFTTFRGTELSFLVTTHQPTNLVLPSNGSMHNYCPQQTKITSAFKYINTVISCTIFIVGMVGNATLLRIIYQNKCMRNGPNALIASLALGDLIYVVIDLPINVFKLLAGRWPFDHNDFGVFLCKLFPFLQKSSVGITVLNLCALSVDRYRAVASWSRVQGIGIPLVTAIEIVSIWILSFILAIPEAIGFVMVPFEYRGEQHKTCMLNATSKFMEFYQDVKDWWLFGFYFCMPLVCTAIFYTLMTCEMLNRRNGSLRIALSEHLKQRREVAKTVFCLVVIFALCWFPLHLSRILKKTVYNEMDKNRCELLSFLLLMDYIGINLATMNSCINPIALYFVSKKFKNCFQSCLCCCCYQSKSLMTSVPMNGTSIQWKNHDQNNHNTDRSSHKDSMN

[3] = molecular target: cGMP-inhibited 3',5'-cyclic phosphodiesterase 3A (Homo sapiens, UniProt Q14432); assay type: functional
Chain of cGMP-inhibited 3',5'-cyclic phosphodiesterase 3A (Q14432 whole entry): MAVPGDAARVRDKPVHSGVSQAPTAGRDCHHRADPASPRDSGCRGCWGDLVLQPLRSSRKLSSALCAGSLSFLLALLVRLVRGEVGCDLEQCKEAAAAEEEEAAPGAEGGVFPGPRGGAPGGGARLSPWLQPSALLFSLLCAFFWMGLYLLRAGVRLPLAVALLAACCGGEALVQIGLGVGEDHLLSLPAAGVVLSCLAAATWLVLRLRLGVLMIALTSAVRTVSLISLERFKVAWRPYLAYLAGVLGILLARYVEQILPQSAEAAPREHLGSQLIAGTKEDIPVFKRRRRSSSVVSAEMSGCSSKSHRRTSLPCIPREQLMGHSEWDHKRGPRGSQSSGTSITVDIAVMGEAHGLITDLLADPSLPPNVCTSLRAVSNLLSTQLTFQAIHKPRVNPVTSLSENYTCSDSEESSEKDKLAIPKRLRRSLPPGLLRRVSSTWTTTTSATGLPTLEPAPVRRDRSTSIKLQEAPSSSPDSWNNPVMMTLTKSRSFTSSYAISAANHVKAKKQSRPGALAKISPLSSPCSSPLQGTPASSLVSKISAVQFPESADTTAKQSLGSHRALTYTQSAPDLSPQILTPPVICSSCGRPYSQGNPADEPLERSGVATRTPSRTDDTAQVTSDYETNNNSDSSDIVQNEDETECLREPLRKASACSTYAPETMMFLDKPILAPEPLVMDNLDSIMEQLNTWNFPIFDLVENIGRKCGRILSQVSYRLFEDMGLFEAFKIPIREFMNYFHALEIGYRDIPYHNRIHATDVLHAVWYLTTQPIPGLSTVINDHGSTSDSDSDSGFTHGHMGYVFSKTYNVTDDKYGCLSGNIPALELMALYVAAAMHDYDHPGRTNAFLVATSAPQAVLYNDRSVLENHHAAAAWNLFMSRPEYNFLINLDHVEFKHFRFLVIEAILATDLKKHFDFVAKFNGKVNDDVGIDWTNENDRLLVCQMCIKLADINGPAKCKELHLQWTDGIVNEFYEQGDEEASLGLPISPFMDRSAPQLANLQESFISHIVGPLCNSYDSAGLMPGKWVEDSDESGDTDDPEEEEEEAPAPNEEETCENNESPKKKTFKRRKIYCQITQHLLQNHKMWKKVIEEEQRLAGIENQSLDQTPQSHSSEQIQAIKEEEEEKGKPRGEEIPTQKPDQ

[4] = molecular target: T2, Alpha-1A adrenergic receptor (Homo sapiens, UniProt P35348); assay type: functional, cell-based
T2 sequence (P35348 whole entry): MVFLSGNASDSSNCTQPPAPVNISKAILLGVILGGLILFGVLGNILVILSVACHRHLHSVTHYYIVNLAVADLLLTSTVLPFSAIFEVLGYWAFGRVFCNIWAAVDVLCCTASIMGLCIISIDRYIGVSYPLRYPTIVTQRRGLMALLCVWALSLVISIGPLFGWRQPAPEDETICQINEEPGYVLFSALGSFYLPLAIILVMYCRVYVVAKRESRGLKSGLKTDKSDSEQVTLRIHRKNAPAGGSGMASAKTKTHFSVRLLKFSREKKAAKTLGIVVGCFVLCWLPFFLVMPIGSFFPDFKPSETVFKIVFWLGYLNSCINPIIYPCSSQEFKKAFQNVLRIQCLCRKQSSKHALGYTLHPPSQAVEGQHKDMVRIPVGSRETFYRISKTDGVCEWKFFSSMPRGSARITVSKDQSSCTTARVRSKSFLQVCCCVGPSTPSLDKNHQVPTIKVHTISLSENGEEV

[5] = molecular target: T3, Adenosine receptor A3 (Homo sapiens, UniProt P0DMS8)
T3 sequence (P0DMS8 whole entry): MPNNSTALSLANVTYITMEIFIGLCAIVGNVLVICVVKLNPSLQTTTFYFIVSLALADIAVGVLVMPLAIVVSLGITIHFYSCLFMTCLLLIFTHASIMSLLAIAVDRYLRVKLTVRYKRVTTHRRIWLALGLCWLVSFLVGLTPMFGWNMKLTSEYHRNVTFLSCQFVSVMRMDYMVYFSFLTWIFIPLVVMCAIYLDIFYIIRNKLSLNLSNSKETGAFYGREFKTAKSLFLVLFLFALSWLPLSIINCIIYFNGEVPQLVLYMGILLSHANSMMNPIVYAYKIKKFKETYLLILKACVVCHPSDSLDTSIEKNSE

[6] = molecular target: Prostaglandin G/H synthase 1 (Homo sapiens, UniProt P23219); assay type: functional
Chain of Prostaglandin G/H synthase 1 (P23219 whole entry): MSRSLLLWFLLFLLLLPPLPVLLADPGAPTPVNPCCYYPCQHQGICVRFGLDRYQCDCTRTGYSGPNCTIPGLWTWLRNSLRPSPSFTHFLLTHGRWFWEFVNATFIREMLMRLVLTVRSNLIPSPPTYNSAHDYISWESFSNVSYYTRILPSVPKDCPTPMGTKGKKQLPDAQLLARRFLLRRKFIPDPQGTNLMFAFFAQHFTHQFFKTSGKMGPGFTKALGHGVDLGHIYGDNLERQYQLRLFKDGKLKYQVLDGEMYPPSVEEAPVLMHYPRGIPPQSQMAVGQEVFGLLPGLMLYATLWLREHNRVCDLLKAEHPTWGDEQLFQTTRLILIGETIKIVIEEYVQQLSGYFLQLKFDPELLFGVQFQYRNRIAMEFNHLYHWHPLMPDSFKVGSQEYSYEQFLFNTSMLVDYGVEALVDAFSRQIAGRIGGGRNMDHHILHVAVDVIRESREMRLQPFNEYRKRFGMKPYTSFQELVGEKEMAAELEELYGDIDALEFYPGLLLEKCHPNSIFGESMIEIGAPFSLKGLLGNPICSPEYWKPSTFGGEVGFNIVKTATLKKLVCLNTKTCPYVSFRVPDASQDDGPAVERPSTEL

[7] = molecular target: T4, Progesterone receptor (Homo sapiens, UniProt P06401)
T4 sequence (P06401 whole entry): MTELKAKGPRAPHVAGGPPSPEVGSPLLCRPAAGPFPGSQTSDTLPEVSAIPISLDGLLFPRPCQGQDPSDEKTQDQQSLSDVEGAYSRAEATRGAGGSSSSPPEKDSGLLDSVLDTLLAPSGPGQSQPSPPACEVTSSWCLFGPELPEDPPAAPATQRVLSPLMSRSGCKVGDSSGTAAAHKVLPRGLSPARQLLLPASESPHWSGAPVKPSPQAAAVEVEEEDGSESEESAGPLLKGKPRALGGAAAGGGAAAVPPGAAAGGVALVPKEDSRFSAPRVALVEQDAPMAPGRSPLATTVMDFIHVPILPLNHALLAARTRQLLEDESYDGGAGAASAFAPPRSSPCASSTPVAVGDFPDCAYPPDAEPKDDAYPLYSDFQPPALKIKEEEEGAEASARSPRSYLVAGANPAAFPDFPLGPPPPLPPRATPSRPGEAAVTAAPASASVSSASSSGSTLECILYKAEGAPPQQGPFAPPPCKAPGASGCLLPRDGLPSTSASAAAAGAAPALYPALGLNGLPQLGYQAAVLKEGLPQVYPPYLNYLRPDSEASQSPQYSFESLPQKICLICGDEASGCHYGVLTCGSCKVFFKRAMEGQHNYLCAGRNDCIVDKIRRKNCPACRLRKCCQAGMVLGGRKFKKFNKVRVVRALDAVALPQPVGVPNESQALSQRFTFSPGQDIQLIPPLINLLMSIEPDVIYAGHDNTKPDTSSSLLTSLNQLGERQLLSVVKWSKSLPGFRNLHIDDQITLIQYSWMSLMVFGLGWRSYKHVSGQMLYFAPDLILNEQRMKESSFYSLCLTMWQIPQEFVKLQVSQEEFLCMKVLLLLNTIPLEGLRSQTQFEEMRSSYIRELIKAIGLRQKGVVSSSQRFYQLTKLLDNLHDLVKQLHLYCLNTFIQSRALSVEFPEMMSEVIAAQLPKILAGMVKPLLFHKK

[8] = molecular target: Melanocortin receptor 4 (Homo sapiens, UniProt P32245)
Chain of Melanocortin receptor 4 (P32245 whole entry): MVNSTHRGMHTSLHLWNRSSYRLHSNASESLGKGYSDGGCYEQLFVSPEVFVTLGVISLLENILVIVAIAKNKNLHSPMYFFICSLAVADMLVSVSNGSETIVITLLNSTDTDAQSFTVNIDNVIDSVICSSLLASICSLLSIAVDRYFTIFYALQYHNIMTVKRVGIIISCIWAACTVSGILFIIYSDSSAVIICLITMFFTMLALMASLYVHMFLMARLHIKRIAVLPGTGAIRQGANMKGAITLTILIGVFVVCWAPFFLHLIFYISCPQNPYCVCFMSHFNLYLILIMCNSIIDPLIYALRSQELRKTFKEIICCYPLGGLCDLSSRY
Further: assay procedure not described here.

Chain of Vasopressin V1a receptor (P37288 whole entry): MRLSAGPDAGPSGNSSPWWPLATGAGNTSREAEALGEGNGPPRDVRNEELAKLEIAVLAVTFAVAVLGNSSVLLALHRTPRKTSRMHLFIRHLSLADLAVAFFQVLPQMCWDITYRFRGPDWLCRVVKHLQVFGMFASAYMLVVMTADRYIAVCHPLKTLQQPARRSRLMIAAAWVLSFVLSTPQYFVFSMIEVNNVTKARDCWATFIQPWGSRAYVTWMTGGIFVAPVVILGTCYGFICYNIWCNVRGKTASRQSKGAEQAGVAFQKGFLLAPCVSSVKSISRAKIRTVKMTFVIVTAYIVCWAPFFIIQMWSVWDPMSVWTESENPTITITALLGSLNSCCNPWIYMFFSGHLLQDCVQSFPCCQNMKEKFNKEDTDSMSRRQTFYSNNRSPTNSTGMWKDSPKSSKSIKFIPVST

AC50 [1] | AC50 [2] | AC50 [8] | Compound | other results
> 30 µM | > 30 µM | – | C=CCNc1nc(NCC=C)nc(N2CCN(C(c3ccc(F)cc3)c3ccc(F)cc3)CC2)n1 [ALMITRINE] | –
> 30 µM | > 30 µM | – | CCC(C)C(CC)C(N)=O (stereo not given) [VALNOCTAMIDE] | –
– | – | – | C=CCSCC1Nc2cc(Cl)c(S(N)(=O)=O)cc2S(=O)(=O)N1 (stereo not given) [ALTHIAZIDE] | AC50 [3]: > 30 µM; AC50 [4]: > 30 µM; AC50 [5]: > 30 µM; AC50 [6]: > 30 µM; AC50 [7]: > 30 µM
> 30 µM | > 30 µM | – | CCOC(=O)C1=C[C@]2(CC)CCCN3CCc4c(n1c1ccccc41)[C@@H]32 [VINPOCETINE] | –
– | – | – | O=[N+]([O-])c1ccc(O)c2ncccc12 [NITROXOLINE] | AC50 [3]: > 30 µM; AC50 [6]: > 30 µM; AC50 [7]: > 30 µM
> 30 µM | > 30 µM | – | CC1(C)S[C@@H]2[C@H](NC(=O)[C@H](N)c3ccccc3)C(=O)N2[C@H]1C(=O)OCOC(=O)[C@@H]1N2C(=O)C[C@H]2S(=O)(=O)C1(C)C [SULTAMICILLIN] | –
– | – | – | C=C1CC[C@H](O)C/C1=C/C=C1\CCC[C@]2(C)[C@@H]([C@H](C)/C=C/[C@H](C)C(C)C)CC[C@@H]12 [ERGOCALCIFEROL] | AC50 [3]: > 30 µM; AC50 [6]: 20.3 µM; AC50 [7]: > 30 µM
> 30 µM | > 30 µM | – | Cc1cccc(N2CC(CO)OC2=O)c1 (stereo not given) [TOLOXATONE] | –
> 30 µM | > 30 µM | – | Oc1ccc2c(c1)CC[C@H](c1ccccc1)[C@@H]2c1ccc(OCCN2CCCC2)cc1 [LASOFOXIFENE] | –
> 10 µM | – | > 30 µM | CCC[C@H](NC(=O)[C@@H]1[C@H]2CCC[C@H]2CN1C(=O)[C@@H](NC(=O)[C@@H](NC(=O)c1cnccn1)C1CCCCC1)C(C)(C)C)C(=O)C(=O)NC1CC1 | –
– | – | – | CC[C@@H]([C@H](C)O)n1ncn(-c2ccc(N3CCN(c4ccc(OC[C@@H]5CO[C@@](Cn6cncn6)(c6ccc(F)cc6F)C5)cc4)CC3)cc2)c1=O [POSACONAZOLE] | AC50 [3]: > 30 µM; AC50 [4]: > 30 µM; AC50 [6]: > 30 µM; AC50 [7]: > 30 µM
> 30 µM | – | > 30 µM | CC(C)[C@H](N)C(=O)OCC(CO)OCn1cnc2c(=O)nc(N)[nH]c21 (stereo not given in full) [VALGANCICLOVIR] | –
> 30 µM | – | > 30 µM | CNCc1ccc(-c2[nH]c3cc(F)cc4c3c2CCNC4=O)cc1 [RUCAPARIB] | –
– | – | – | Cc1ccccc1N1CCN(CCc2nnc3n2CCCC3)CC1 [DAPIPRAZOLE] | AC50 [3]: > 30 µM; AC50 [5]: > 30 µM; AC50 [6]: > 30 µM; AC50 [7]: > 30 µM
> 30 µM | > 30 µM | – | COc1cc(N)c(Cl)cc1C(=O)NC1CCN(Cc2ccccc2)CC1 [CLEBOPRIDE] | –
> 10 µM | – | > 10 µM | CC1OC2(CS1)CN1CCC2CC1 (stereo not given) [CEVIMELINE] | –
> 30 µM | > 30 µM | – | C#C[C@]1(OC(C)=O)CC[C@H]2[C@@H]3CCC4=C/C(=N/O)CC[C@@H]4[C@H]3CC[C@@]21CC [NORGESTIMATE] | –
– | – | > 10 µM | Cc1noc(NS(=O)(=O)c2ccc(N)cc2)c1C [SULFISOXAZOLE] | –
> 10 µM | – | > 10 µM | C[C@H](Cc1ccc(O)c(O)c1)[C@@H](C)Cc1ccc(O)c(O)c1 [MASOPROCOL] | –

Compound | AC50 [1] | AC50 [2] | AC50 [8] | other results
C[C@]12CC[C@@H]3c4ccc(O)cc4C[C@@H](CCCCCCCCC[S+]([O-])CCCC(F)(F)C(F)(F)F)[C@H]3[C@@H]1CC[C@@H]2O (stereo not given in full) [FULVESTRANT] | > 30 µM | > 30 µM | – | –
CCCN[C@H]1CCc2nc(N)sc2C1 [PRAMIPEXOLE] | > 30 µM | – | > 30 µM | –
